Laboratory results reported in PubChem BioAssay (NCI).
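Each compound was tested at five concentrations against cells in 96-well plates for 48 hours. TGI: total growth inhibition.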

What was measured:
Experiment in all cases: inhibition of tumour cell growth, NCI panel, 48 h
NCI-H460 lung = test system: NCI-H460 lung
786-0 renal = test system: 786-0 renal
NCI/ADR-RES ovarian = test system: NCI/ADR-RES ovarian
OVCAR-5 ovarian = test system: OVCAR-5 ovarian
SN12C renal = test system: SN12C renal
HL-60(TB) leukemia = test system: HL-60(TB) leukemia
BT-549 breast = test system: BT-549 breast
MALME-3M melanoma = test system: MALME-3M melanoma
SK-MEL-28 melanoma = test system: SK-MEL-28 melanoma
U251 CNS = test system: U251 CNS
SR leukemia = test system: SR leukemia
UACC-257 melanoma = test system: UACC-257 melanoma
KM12 colon = test system: KM12 colon
NCI-H226 lung = test system: NCI-H226 lung
MOLT-4 leukemia = test system: MOLT-4 leukemia
OVCAR-8 ovarian = test system: OVCAR-8 ovarian

SMILES	TGI (NCI-H460 lung)	TGI (786-0 renal)	TGI (NCI/ADR-RES ovarian)	TGI (OVCAR-5 ovarian)	TGI (SN12C renal)	TGI (HL-60(TB) leukemia)	TGI (BT-549 breast)	TGI (MALME-3M melanoma)	TGI (SK-MEL-28 melanoma)	TGI (U251 CNS)	TGI (SR leukemia)	TGI (UACC-257 melanoma)	TGI (KM12 colon)	TGI (NCI-H226 lung)	TGI (MOLT-4 leukemia)	TGI (OVCAR-8 ovarian)
O=S(=O)(CC(Cl)c1ccccc1)c1nc2ccccc2s1 (stereo not given)	52.4 µM	19.4 µM	49 µM	28.8 µM	30.3 µM	4.43 µM	8.72 µM	23.6 µM	29.7 µM	25.9 µM	4.55 µM	23.2 µM	32 µM	22.1 µM	7.64 µM	23.8 µM
COC(=O)C1(Cc2ccccc2)Cc2ccccc2C1O (stereo not given)	> 100 µM	> 100 µM	> 100 µM	> 100 µM	> 100 µM	> 100 µM	> 100 µM	> 100 µM	> 100 µM	> 100 µM	> 100 µM	> 100 µM	> 100 µM	> 100 µM	> 100 µM	> 100 µM
O=C(N/C(=C\c1ccccc1)c1nc2ccccc2c(=O)o1)c1ccccc1	> 100 µM	> 100 µM	> 100 µM	> 100 µM	> 100 µM	> 100 µM	66.8 µM	> 100 µM	> 100 µM	> 83.3 µM	> 100 µM	> 72.6 µM	> 100 µM	> 100 µM	> 100 µM	> 100 µM
CCN(CC)CCCNc1ccc([N+](=O)[O-])c2nc3ccccc3c(N)c12	1.44 µM	1.72 µM	2.65 µM	3.43 µM	> 10 µM	2.92 µM	3.32 µM	> 10 µM	> 10 µM	–	4.56 µM	> 10 µM	1.7 µM	> 10 µM	4.29 µM	4.51 µM
CCS1=C2C(=O)CC(C)(C)CC2=Nc2ccccc21 (stereo not given)	> 100 µM	> 100 µM	> 100 µM	> 100 µM	> 100 µM	> 100 µM	> 100 µM	> 100 µM	> 100 µM	> 100 µM	> 100 µM	> 100 µM	> 100 µM	> 100 µM	> 100 µM	> 100 µM
Fc1cc2nc3n(c2cc1F)C(c1c(F)cccc1F)SC3 (stereo not given)	> 100 µM	80.6 µM	> 100 µM	> 100 µM	> 100 µM	51.2 µM	> 100 µM	> 100 µM	> 100 µM	> 100 µM	> 100 µM	> 100 µM	> 100 µM	> 100 µM	> 100 µM	> 100 µM
CCCC(=O)OCC1OC(n2cc(F)c(=O)[nH]c2=O)C(F)C1O (stereo not given)	> 100 µM	> 100 µM	> 100 µM	> 100 µM	> 100 µM	> 100 µM	> 100 µM	> 100 µM	> 100 µM	> 100 µM	> 100 µM	> 100 µM	> 100 µM	> 100 µM	> 100 µM	> 100 µM
O=C(/C=C/c1ccc([N+](=O)[O-])cc1)N1CCN(CCOC(c2ccc(F)cc2)c2ccc(F)cc2)CC1	> 100 µM	> 100 µM	> 100 µM	> 100 µM	> 100 µM	> 100 µM	> 100 µM	> 100 µM	> 100 µM	> 100 µM	40.5 µM	> 100 µM	> 100 µM	> 100 µM	19 µM	> 100 µM
COC(=O)CN(CC(=O)NCCNC(=O)OC(C)(C)C)C1CCCCC1N(CC(=O)OC)CC(=O)OC (stereo not given)	> 100 µM	> 100 µM	> 100 µM	> 100 µM	> 100 µM	> 100 µM	> 100 µM	> 100 µM	> 100 µM	> 100 µM	> 100 µM	> 100 µM	> 100 µM	> 100 µM	> 100 µM	> 100 µM
FC(F)(F)c1ccc2c(-c3cc[nH]c3)ccnc2c1	> 100 µM	32.1 µM	> 100 µM	87.4 µM	> 100 µM	42.2 µM	68.9 µM	50.4 µM	> 100 µM	> 100 µM	84.9 µM	> 100 µM	> 100 µM	> 100 µM	59.3 µM	> 100 µM
Cc1n[nH]c(=O)n1C1CC1	> 100 µM	> 100 µM	> 100 µM	> 100 µM	> 100 µM	> 100 µM	> 100 µM	> 100 µM	> 100 µM	> 100 µM	> 100 µM	> 100 µM	> 100 µM	> 100 µM	> 100 µM	> 100 µM
O=C(CCN1CCCCC1)Nc1ccc2c(c1)C(=O)c1ccc(NC(=O)CCN3CCCCC3)cc1C2=O	3 µM	3.8 µM	25.8 µM	31.4 µM	18 µM	20.8 µM	27.8 µM	25.5 µM	32.8 µM	9.97 µM	6.49 µM	30.5 µM	3.26 µM	29.6 µM	14.5 µM	13.7 µM
CC(=O)Nc1ccc(S(=O)(=O)c2nnc(NC(C)=O)s2)cc1	> 100 µM	> 100 µM	> 100 µM	> 100 µM	> 100 µM	> 100 µM	> 100 µM	> 100 µM	> 100 µM	> 100 µM	> 100 µM	> 100 µM	> 100 µM	> 100 µM	> 100 µM	> 100 µM
O=C(O)CCC(NC(=O)c1ccc(Oc2nc3ccccc3nc2C(=O)O)cc1)C(=O)O (stereo not given)	> 100 µM	> 100 µM	> 100 µM	> 100 µM	–	> 100 µM	> 100 µM	> 100 µM	> 100 µM	> 100 µM	> 100 µM	> 100 µM	> 100 µM	> 100 µM	> 100 µM	> 100 µM
CCCCCCCCCCC/C=C(/C(=O)CCCO[Si](C)(C)C(C)(C)C)C(=O)OC	> 100 µM	> 100 µM	> 100 µM	> 100 µM	> 100 µM	> 100 µM	> 100 µM	> 100 µM	> 100 µM	> 100 µM	> 100 µM	> 100 µM	> 100 µM	> 100 µM	> 100 µM	> 100 µM
O=C(NC(CS)C(=O)O)c1c2ccccc2nc2ccccc12 (stereo not given)	> 100 µM	> 100 µM	> 100 µM	> 100 µM	> 100 µM	> 100 µM	58.5 µM	56.8 µM	> 100 µM	> 100 µM	> 100 µM	> 100 µM	> 100 µM	> 100 µM	> 100 µM	> 100 µM
C[C@]12CC[C@H]3[C@@H](CC=C4C[C@@H](O)CC[C@@]43C)[C@@H]1C/C(=C\c1ccncc1)[C@@H]2O	42.2 µM	60.5 µM	67.7 µM	> 100 µM	34.8 µM	31 µM	19.9 µM	62.1 µM	51.3 µM	33.9 µM	57.3 µM	40.4 µM	31.2 µM	57.2 µM	61.9 µM	39.8 µM
